Data reported in patent publication EP0863134A1, “2-(3,5-difluorophenyl)-3-(4-(methyl-sulfonyl)phenyl)-2-cyclopenten-1-one useful as an inhibitor of cyclooxygenase-2” (MERCK FROSST CANADA INC., priority 1997, dated 1998).

Experiments:
COX-2 [1] = target: T1, COX-2 (Homo sapiens, UniProt P35354); assay: Whole cell assay for COX-2 using CHO transfected cell line CHO[hCOX-2]; format: cell-based; details: CHO[hCOX-2] cells, 10 µM AA, PGE2
T1 construct: endogenous in cells; host or cells: fresh heparinized human whole blood from volunteers, LPS-stimulated
T1 sequence (P35354 18-604): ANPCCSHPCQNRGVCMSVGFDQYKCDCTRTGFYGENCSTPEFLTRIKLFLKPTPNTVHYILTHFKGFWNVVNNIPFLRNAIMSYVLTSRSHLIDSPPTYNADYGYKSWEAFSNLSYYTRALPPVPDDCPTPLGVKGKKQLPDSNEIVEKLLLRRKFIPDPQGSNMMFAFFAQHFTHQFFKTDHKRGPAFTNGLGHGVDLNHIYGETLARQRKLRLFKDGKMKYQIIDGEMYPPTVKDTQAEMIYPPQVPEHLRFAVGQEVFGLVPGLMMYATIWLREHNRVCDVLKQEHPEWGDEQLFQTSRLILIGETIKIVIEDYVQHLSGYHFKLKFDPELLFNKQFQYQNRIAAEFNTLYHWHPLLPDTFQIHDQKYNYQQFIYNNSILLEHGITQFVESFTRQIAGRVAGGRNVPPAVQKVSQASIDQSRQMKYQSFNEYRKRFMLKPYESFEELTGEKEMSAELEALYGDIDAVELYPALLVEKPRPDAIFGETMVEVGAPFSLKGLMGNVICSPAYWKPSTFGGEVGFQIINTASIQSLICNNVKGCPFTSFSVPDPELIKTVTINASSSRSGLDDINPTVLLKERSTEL
Procedure: (§1) Chinese hamster ovary (CHO) cell lines which have been stably transfected with an eukaryotic expression vector pCDNAIII containing either the human COX-1 or COX-2 cDNA's are used for the assay. These cell lines are referred to as CHO [hCOX-1] and CHO [hCOX-2], respectively. For cyclooxygenase assays, CHO[hCOX-1] cells from suspension cultures and CHO[hCOX-2] cells prepared by trypsinization of adherent cultures are harvested by centrifugation (300 x g, 10 min) and washed once in HBSS containing 15 mM HEPES, pH 7.4, and resuspended in HBSS, 15 mM HEPES, pH 7.4, at a cell concentration of 1.5 x 10^6 cells/ml. Drugs to be tested are dissolved in DMSO to 66.7-fold the highest test drug concentration. Compounds are typically tested at 8 concentrations in duplicate using serial 3-fold serial dilutions in DMSO of the highest drug concentration. […] Cyclooxygenase activity in the absence of test compounds is determined as the difference in PGE2 levels of cells challenged with arachidonic acid versus the PGE2 levels in cells mock-challenged with ethanol vehicle. Inhibition of PGE2 synthesis by test compounds is calculated as a percentage of the activity in the presence of drug versus the activity in the positive control samples. […] In the assays, inhibition is determined by measuring the amount of a prostaglandin synthesized in the presence and absence of a putative inhibitor. […]

COX-2 [2] = target: T1, COX-2; assay: Human whole blood assay, COX-2 (LPS-induced PGE2 production); format: cell-based; details: LPS-induced PGE2, 24 hours at 37°C
Procedure: (§2) Human whole blood provides a protein and cell-rich milieu appropriate for the study of biochemical efficacy of anti-inflammatory compounds such as selective COX-2 inhibitors. […] This is consistent with the observation that COX-2 inhibitors have no effect on PGE2 production in normal blood. These inhibitors are active only after incubation of human whole blood with LPS, which induces COX-2. This assay can be used to evaluate the inhibitory effect of selective COX-2 inhibitors on PGE2 production. As well, platelets in whole blood contain a large amount of the COX-1 enzyme. Immediately following blood clotting, platelets are activated through a thrombin-mediated mechanism. […] Thus, the effect of test compounds on TxB2 levels following blood clotting can be examined and used as an index for COX-1 activity. Therefore, the degree of selectivity by the test compound can be determined by measuring the levels of PGE2 after LPS induction (COX-2) and TxB2 following blood clotting (COX-1) in the same assay. Fresh blood is collected in heparinized tubes by venipuncture from both male and female volunteers. The subjects have no apparent inflammatory conditions and have not taken any NSAIDs for at least 7 days prior to blood collection. […] In the assays, inhibition is determined by measuring the amount of a prostaglandin synthesized in the presence and absence of a putative inhibitor. […]

Rat Paw edema = assay: Rat paw edema assay (carrageenan); format: in vivo, Male Sprague-Dawley rats; details: po, 1 hr before carrageenan, paw volume 3 hr later
Procedure: Male Sprague-Dawley rats (150-200 g) are fasted overnight and are given po, either vehicle (1% methocel or 5% Tween 80) or a test compound. One hr later, a line is drawn using a permanent marker at the level above the ankle in one hind paw to define the area of the paw to be monitored. The paw volume (V0) is measured using a plethysmometer (Ugo-Basile, Italy) based on the principle of water displacement. The animals are then injected subplantarly with 50 µl of 1% carrageenan solution in saline (FMC Corp, Maine) into the paw using an insulin syringe with a 25-gauge needle (i.e. 500 µg carrageenan per paw). Three hr later, the paw volume (V3) is measured and the increases in paw volume (V3 - VO) are calculated. The animals are sacrificed by CO2 asphyxiation and the absence or presence of stomach lesions scored. Data is compared with the vehicle-control values and percent inhibition calculated. All treatment groups are coded to eliminate observer bias.
Compounds of the present invention are inhibitors of COX-2 and are thereby useful in the treatment of COX-2 mediated diseases as enumerated above. The activities of compound A against cyclooxygenase may be seen in the representative results shown below in the Table. In the assays, inhibition is determined by measuring the amount of a prostaglandin synthesized in the presence and absence of a putative inhibitor. […]

COX-1 [3] = target: T2, COX-1 (Homo sapiens, UniProt P23219); assay: Assay of COX-1 activity from U937 cell microsomes; format: biochemical; design: endogenous in cells; host or cells: U937 cells, 100,000 x g microsomal fraction; details: PGE2
Procedure: U 937 cells are pelleted by centrifugation at 500 x g for 5 min and washed once with phosphate-buffered saline and repelleted. Cells are resuspended in homogenization buffer consisting of 0.1 M Tris-HCl, pH 7.4, 10 mM EDTA, 2 µg/ml leupeptin, 2 µg/ml soybean trypsin inhibitor, 2 µg/ml aprotinin and 1 mM phenyl methyl sulfonyl fluoride. The cell suspension is sonicated 4 times for 10 sec and is centrifuged at 10,000 x g for 10 min at 4° C. The supernatant is centrifuged at 100,000 x g for 1 hr at 4° C. The 100,000 x g microsomal pellet is resuspended in 0.1 M Tris-HCl, pH 7.4, 10 mM EDTA to approximately 7 mg protein/ml and stored at -80° C. Microsomal preparations are thawed immediately prior to use, subjected to a brief sonication, and then diluted to a protein concentration of 125 µg/ml in 0.1 M Tris-HCl buffer, pH 7.4 containing 10 mM EDTA, 0.5 mM phenol, 1 mM reduced glutathione and 1 µM hematin. Assays are performed in duplicate in a final volume of 250 µl. […] Samples are neutralized with 25 µl of 1 N NaOH prior to quantitation of PGE2 content by radioimmunoassay (Dupont-NEN or Amersham assay kits). […] In the assays, inhibition is determined by measuring the amount of a prostaglandin synthesized in the presence and absence of a putative inhibitor. […]

COX-1 [4] = target: T2, COX-1; assay: Whole cell assay for COX-1 using CHO transfected cell line CHO[hCOX-1]; format: cell-based; design: platelets in whole blood contain a large amount of the COX-1 enzyme; endogenous in cells; host or cells: platelets in fresh human whole blood without anticoagulant; details: CHO[hCOX-1] cells, 0.5 µM AA, PGE2
Procedure: as §1

COX-1 [5] = target: T2, COX-1; assay: Human whole blood assay, COX-1 (clotting-induced TxB2 production); format: cell-based; design: platelets in whole blood contain a large amount of the COX-1 enzyme; endogenous in cells; host or cells: platelets in fresh human whole blood without anticoagulant; details: clotting-induced TxB2, 1 hour at 37°C
Procedure: as §2, with “into vacutainers containing” for “in heparinized tubes by venipuncture from both male and female volunteers. The subjects have”, “anticoagulants.” for “apparent inflammatory conditions and have not taken any NSAIDs for at least 7 days prior to blood collection.”

T2 sequence (P23219 24-599): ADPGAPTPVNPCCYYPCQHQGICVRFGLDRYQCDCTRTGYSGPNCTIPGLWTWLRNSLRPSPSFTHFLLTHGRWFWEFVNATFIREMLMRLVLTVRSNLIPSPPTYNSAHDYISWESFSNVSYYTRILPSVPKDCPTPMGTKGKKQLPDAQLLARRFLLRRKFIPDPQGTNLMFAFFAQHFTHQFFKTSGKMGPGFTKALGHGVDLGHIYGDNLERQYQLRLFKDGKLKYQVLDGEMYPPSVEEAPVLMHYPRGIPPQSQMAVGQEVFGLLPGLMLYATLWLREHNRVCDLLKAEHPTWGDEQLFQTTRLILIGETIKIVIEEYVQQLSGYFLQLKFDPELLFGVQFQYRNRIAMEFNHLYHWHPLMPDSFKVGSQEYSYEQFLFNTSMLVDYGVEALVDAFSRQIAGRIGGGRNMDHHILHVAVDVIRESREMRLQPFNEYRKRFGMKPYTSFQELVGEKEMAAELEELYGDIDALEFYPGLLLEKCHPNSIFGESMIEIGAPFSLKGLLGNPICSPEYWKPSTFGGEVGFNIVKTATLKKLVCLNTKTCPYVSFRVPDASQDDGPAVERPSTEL

Row | IC50 (COX-2 [1]) [nM] | IC50 (COX-2 [2]) [nM] | IC50 (COX-1 [3]) [nM] | IC50 (COX-1 [4]) [nM] | IC50 (COX-1 [5]) [nM] | IC50 (COX-1 [4]; unit inferred) [nM] | Structure (SMILES) | ED50 (Rat Paw edema) [mg/kg]
1 | 30 | 450 | 11000 | > 50000 | 77000 | – | CS(=O)(=O)c1ccc(C2=C(c3cc(F)cc(F)c3)C(=O)CC2)cc1 [Compound A, 2-(3,5-difluorophenyl)-3-(4-(methylsulfonyl)phenyl)-2-cyclopenten-1-one] | 2.6
2 | 20 | 120 | 450 | – | 4400 | 17000 | CS(=O)(=O)c1ccc(C2=C(c3ccc(F)cc3)C(=O)CC2)cc1 [Compound B] | 3
